Assay [1] has as its target T1, Histone deacetylase 1 (Homo sapiens, UniProt Q13547). In words: Inhibition of human recombinant HDAC1.
The subject of assay [2] is HCT-116. Kind of assay: Cytotoxicity against human HCT116 cells by MTT assay. Format: functional, cell-based. A general note: Tetrazolium dyes change colour on reduction, which living cells bring about.
Assay [3] is described as follows: Induction of histone H4 acetylation in human […]. Format: functional, cell-based.
The next assay deals with HMEC. In words: Cytotoxicity against human HMEC cells by MTT assay. Format: cell-based.
Assay [4] has as its target T1, Histone deacetylase 1. Kind of assay: Activity against HDAC1.
The target in assay [5] is Histone deacetylase 2 (Homo sapiens) (UniProt Q92769). In words: Activity against HDAC2.
Assay [6] addresses Histone deacetylase 3 (Homo sapiens) (UniProt O15379). Kind of assay: Activity against HDAC3.
The target of assay [7] is Histone deacetylase 4 (Homo sapiens) (UniProt P56524). Kind of assay: Activity against HDAC4.
Assay [8] concerns the target Histone deacetylase 5 (Homo sapiens) (UniProt Q9UQL6). In words: Activity against HDAC5.
Assay [9] addresses T2, Protein deacetylase HDAC6 (Homo sapiens) (UniProt Q9UBN7).
T2 sequence (whole entry): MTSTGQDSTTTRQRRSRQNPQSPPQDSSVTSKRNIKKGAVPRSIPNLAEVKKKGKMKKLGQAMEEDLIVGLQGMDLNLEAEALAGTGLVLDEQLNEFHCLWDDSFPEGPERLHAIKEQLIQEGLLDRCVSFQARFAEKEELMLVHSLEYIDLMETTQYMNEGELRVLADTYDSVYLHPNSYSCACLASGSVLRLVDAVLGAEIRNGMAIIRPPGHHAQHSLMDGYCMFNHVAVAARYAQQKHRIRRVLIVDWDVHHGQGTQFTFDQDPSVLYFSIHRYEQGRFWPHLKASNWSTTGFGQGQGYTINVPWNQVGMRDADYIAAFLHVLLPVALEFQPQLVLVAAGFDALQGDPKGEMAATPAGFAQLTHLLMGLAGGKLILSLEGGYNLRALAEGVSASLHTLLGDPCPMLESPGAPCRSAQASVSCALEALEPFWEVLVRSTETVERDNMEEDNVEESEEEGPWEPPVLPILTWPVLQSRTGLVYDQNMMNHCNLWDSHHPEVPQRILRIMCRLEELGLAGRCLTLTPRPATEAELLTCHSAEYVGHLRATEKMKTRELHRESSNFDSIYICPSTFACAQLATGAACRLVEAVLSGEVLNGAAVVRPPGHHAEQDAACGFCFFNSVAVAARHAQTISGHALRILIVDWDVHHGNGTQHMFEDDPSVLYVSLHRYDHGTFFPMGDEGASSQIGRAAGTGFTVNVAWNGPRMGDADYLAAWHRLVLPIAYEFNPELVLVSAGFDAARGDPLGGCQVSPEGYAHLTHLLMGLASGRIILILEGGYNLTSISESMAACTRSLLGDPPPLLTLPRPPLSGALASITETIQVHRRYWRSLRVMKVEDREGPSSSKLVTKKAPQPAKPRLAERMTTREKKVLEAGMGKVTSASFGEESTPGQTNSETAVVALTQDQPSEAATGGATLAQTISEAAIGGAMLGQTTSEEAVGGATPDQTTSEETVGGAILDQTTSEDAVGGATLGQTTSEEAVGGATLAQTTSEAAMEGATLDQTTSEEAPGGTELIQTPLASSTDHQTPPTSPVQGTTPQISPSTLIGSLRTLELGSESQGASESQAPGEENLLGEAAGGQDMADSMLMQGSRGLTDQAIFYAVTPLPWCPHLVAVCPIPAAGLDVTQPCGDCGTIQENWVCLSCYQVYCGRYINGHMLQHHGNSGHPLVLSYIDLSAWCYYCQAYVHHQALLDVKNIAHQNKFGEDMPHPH
Kind of assay: Activity against HDAC6.

Assay [10] has as its target T3, Histone deacetylase 7 (Homo sapiens) (UniProt Q8WUI4).
T3 sequence (whole entry): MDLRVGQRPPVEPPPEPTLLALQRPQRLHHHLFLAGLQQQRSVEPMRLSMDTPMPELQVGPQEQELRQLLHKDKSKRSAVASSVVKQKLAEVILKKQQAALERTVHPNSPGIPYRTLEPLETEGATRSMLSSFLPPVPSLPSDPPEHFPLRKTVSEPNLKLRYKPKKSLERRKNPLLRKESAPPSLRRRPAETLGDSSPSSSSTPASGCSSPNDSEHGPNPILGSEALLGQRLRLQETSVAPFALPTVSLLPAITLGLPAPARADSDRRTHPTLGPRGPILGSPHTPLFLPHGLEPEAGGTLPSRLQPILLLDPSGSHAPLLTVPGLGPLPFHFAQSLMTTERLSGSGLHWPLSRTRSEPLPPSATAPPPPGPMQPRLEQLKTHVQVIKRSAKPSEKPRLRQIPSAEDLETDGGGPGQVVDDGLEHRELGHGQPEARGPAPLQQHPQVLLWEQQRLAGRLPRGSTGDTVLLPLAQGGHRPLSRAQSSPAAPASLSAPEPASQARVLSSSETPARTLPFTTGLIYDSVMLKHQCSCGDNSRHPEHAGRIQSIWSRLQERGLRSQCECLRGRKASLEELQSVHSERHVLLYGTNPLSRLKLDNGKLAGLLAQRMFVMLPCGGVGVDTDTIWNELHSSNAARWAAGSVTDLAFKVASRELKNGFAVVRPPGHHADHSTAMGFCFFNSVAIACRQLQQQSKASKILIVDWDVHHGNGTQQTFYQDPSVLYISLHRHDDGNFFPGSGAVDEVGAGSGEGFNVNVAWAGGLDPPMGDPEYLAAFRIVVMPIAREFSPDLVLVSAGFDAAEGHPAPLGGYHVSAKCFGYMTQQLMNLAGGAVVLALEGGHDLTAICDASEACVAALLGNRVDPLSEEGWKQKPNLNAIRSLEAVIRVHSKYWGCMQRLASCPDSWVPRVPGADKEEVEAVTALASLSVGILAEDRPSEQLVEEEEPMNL
In words: Activity against HDAC7.

Assay [11] concerns HCT-116. Kind of assay: Antitumor activity in human HCT116 tumor bearing mouse at 40 mg/kg/day, ip after 2 weeks. Type of assay: functional. The conditions noted are these: HCT-116, ip, 336 h, route intraperitoneal.
The test system of assay [12] is HCT-116. Kind of assay: Antitumor activity in human HCT116 tumor bearing mouse at 20 mg/kg/day, ip after 2 weeks. The conditions noted are these: HCT-116, ip, 336 h, route intraperitoneal. Type of assay: functional.

Calls of active or inactive are those of the source. The calls are words filed in the database; no cut-off is given here.

The source of these data is ChEMBL document CHEMBL1143113, “Design and synthesis of 4-[(s-triazin-2-ylamino)methyl]-N-(2-aminophenyl)-benzamides and their analogues as a novel class of histone deacetylase inhibitors” (Bioorg Med Chem Lett, 2008).

Histone deacetylase 4 (Homo sapiens), sequence (P56524 whole entry): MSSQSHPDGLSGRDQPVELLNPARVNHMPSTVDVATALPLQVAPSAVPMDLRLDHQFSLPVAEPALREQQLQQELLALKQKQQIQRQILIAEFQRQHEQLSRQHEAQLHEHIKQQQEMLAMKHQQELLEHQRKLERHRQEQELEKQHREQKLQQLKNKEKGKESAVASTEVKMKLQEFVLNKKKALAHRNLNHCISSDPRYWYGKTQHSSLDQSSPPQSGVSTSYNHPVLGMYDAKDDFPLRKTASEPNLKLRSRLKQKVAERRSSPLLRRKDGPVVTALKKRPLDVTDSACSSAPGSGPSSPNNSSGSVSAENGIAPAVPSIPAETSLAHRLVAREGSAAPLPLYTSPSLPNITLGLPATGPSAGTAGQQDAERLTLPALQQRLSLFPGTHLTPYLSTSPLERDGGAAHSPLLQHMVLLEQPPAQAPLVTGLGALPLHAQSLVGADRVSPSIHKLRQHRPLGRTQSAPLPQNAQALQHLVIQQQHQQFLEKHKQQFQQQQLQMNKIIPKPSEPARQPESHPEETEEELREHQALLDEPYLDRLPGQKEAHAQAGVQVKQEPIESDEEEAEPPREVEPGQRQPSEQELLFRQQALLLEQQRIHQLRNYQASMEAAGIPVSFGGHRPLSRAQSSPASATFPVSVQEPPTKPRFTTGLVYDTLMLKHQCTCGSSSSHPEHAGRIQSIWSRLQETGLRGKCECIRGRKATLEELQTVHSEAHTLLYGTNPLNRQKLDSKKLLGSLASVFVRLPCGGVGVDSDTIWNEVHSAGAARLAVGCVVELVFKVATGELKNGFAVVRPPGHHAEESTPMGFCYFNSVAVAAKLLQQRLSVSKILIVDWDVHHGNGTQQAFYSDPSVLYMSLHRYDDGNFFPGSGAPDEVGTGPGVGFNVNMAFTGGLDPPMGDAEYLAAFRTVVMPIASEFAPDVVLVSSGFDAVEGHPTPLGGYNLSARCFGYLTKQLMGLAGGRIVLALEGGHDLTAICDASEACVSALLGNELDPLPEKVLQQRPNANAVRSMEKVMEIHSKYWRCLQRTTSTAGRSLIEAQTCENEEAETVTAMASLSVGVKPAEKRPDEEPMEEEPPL
Histone deacetylase 5 (Homo sapiens), sequence (Q9UQL6 whole entry): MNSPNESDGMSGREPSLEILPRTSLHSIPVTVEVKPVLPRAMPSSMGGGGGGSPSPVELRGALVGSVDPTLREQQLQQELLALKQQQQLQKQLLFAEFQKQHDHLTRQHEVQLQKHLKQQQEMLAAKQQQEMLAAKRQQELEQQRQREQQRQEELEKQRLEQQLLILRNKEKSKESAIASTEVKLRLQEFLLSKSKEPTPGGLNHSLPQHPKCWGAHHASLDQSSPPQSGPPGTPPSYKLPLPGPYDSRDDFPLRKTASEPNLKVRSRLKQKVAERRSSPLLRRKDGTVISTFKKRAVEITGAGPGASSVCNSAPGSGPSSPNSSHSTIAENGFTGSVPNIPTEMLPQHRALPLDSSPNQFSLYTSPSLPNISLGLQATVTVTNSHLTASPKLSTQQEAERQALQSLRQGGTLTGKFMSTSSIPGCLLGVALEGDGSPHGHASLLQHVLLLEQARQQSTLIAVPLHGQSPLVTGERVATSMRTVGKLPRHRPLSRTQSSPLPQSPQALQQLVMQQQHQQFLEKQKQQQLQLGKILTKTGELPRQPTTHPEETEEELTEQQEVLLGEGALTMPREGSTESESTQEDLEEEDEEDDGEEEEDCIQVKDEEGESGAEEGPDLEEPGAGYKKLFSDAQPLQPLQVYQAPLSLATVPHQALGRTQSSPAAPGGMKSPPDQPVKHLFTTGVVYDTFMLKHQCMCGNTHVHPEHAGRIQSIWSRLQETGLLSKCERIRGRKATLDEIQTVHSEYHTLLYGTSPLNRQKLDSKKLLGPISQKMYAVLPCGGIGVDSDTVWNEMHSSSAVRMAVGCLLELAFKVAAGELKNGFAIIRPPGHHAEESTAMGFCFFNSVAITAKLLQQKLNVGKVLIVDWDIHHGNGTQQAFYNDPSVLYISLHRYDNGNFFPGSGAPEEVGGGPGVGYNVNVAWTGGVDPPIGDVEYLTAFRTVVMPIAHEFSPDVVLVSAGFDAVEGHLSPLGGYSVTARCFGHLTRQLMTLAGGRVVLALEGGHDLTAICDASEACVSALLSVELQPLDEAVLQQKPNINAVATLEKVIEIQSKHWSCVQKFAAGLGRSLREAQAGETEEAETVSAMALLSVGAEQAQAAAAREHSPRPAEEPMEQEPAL
Histone deacetylase 3 (Homo sapiens), sequence (O15379 whole entry): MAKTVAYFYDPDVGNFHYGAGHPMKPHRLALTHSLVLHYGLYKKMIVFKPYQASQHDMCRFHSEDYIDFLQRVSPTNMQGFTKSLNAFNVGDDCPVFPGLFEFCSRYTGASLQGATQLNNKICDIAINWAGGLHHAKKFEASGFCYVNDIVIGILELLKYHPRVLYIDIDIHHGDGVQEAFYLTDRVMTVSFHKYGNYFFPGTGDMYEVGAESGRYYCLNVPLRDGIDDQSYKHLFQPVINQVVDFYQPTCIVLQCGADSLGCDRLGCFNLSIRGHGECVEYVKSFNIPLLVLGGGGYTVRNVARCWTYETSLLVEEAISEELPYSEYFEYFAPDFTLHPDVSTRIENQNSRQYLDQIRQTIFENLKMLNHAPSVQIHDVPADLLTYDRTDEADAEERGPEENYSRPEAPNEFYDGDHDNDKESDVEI
Histone deacetylase 2 (Homo sapiens), sequence (Q92769 whole entry): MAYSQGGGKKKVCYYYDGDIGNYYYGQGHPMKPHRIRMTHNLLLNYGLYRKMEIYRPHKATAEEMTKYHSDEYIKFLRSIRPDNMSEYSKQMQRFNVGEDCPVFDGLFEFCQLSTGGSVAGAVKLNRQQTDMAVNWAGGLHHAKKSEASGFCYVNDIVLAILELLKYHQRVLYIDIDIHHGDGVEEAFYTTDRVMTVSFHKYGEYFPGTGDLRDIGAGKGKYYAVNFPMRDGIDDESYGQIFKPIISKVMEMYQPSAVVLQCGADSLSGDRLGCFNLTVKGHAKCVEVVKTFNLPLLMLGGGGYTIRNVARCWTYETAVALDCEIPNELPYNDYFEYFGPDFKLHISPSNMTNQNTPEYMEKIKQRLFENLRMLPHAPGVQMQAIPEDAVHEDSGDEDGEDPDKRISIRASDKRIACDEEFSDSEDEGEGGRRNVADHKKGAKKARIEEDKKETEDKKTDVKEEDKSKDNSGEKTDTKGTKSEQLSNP
T1 sequence (Q13547 whole entry): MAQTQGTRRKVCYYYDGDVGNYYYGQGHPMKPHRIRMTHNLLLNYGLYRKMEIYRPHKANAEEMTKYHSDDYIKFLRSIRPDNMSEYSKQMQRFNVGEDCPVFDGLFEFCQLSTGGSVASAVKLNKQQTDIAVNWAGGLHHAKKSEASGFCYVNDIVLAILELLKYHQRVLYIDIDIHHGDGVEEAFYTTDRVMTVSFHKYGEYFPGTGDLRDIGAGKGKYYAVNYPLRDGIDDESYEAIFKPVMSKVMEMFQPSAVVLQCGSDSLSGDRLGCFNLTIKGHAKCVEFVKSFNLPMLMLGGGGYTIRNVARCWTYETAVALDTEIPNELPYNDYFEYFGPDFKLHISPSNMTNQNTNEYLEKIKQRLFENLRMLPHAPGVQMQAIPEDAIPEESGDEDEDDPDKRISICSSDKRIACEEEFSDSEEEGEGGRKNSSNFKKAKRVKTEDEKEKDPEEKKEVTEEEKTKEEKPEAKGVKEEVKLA

The IC50 is the midpoint of a concentration-inhibition curve. `COc1cccc(NCc2ccc(C(=O)Nc3ccccc3N)cc2)n1`: the IC50 on Histone deacetylase 1 [1] came out at 100 nM; in the assay on HCT-116 [2], 800 nM.
In the case of `COc1cc(NCc2ccc(C(=O)Nc3ccccc3N)cc2)ncn1`, the IC50 on Histone deacetylase 1 [1] is 200 nM; in the assay on HCT-116 [2] it was 1000 nM.
Broadly, the EC50 is the midpoint of the concentration-response curve. Lower therefore signals higher potency in that assay. What is called inhibition in vivo is the percentage by which the read-out fell short of the control. A low value points to a weak effect. Take `Nc1nc(NCc2ccc(C(=O)Nc3ccccc3N)cc2)nc(N2CCOCC2)n1`: the IC50 was 200 nM on Histone deacetylase 1 [1], 800 nM in the assay on HCT-116 [2] and greater than 40000 nM in the assay with HMEC. Besides, in assay [3], the EC50 came to 5000 nM. Also, the outcome (at Histone deacetylase 1 [4]; in [5]; in [6]) was Active. Moreover, the outcome in [7], in [8], in [9] and in [10] was inactive. In the assay with HCT-116 [11], this compound registered an inhibition in vivo at 40 mg/kg/day of 50%.
Turning to `Nc1nc(NCCc2ccccc2)nc(NCc2ccc(C(=O)Nc3ccccc3N)cc2)n1`, the values for the IC50 at Histone deacetylase 1 [1], in the assay on HCT-116 [2] and in the assay on HMEC were 100 nM, 300 nM and 21000 nM, respectively. This compound gave an EC50 in assay [3] of 1000 nM.
Taken in the same sequence, the figures for `Nc1nc(NCc2ccc(C(=O)Nc3ccccc3N)cc2)nc(N2Cc3ccccc3C2)n1` were 40 nM, 500 nM, greater than 50000 nM and 1000 nM.
As for `Nc1nc(NCc2ccc(C(=O)Nc3ccccc3N)cc2)c2nc[nH]c2n1`, the IC50 on Histone deacetylase 1 [1] came to 200 nM; in the assay with HCT-116 [2] it was 10000 nM.
For the compound `Cc1ccc(C#N)c(OCc2ccc(C(=O)Nc3ccccc3N)cc2)n1`, the IC50 at Histone deacetylase 1 [1] turned out to be 300 nM; in the assay on HCT-116 [2], 500 nM.
For the compound `Nc1nc(NCc2ccc(C(=O)Nc3ccccc3N)cc2)nc(N2CCc3ccccc32)n1`, the IC50 at Histone deacetylase 1 [1] was found to be 100 nM; in the assay with HCT-116 [2], 800 nM; in the assay on HMEC, 10000 nM. The EC50 in [3] turned out to be 1000 nM.
For `COc1ccc(NCc2ccc(C(=O)Nc3ccccc3N)cc2)cn1`, the values for the IC50 on Histone deacetylase 1 [1] and in the assay on HCT-116 [2] were 100 nM and 700 nM, respectively.
For `Nc1ccccc1NC(=O)c1ccc(CNc2nc(NCCN3CCOCC3)nc(NC3Cc4ccccc4C3)n2)cc1`, the IC50 on Histone deacetylase 1 [1] came out at 70 nM; in the assay on HCT-116 [2], 600 nM; with HMEC, 16000 nM. Besides, the EC50 in [3] is 1000 nM. The result (on Histone deacetylase 1 [4]; in [5]; in [6]) was Active. The outcome in assay [7], in [8], in assay [9] and in assay [10] was inactive. This compound also came in with an inhibition in vivo at 20 mg/kg/day in the assay on HCT-116 [12] of 49%.
As for `COc1ccc(-c2cc(Cl)nc(NCc3ccc(C(=O)Nc4ccccc4N)cc3)n2)cc1OC`, the IC50 was determined as 100 nM on Histone deacetylase 1 [1] and 400 nM with HCT-116 [2].
In the case of `CCCCn1cnc2c(NCc3ccc(C(=O)Nc4ccccc4N)cc3)nc(N)nc21`, the concentration for half-maximal inhibition (IC50) at Histone deacetylase 1 [1] stood at 300 nM; in the assay with HCT-116 [2], 2000 nM.
With `Nc1ccccc1NC(=O)c1ccc(CNc2ncccn2)cc1`, the results for the IC50 on Histone deacetylase 1 [1] and with HCT-116 [2] were 700 nM and 2000 nM, respectively.
As for `COc1ccc(-c2ccnc(NCc3ccc(C(=O)Nc4ccccc4N)cc3)n2)cc1OC`, the IC50 is 50 nM on Histone deacetylase 1 [1] and 100 nM with HCT-116 [2].
Take `COc1cc(OC)nc(NCc2ccc(C(=O)Nc3ccccc3N)cc2)n1`: the results for the IC50 on Histone deacetylase 1 [1] and with HCT-116 [2] were 100 nM and 600 nM, respectively.
`Nc1ccccc1NC(=O)c1ccc(CSc2ccccn2)cc1`: the values for the IC50 on Histone deacetylase 1 [1] and in the assay on HCT-116 [2] were 300 nM and 1000 nM, respectively.
With `Nc1ccccc1NC(=O)c1ccc(CNc2nc(NC3Cc4ccccc4C3)nc(N3CCOCC3)n2)cc1`, the figures for the IC50 on Histone deacetylase 1 [1], with HCT-116 [2] and in the assay on HMEC were 80 nM, 2000 nM and greater than 50000 nM, respectively. Besides, the midpoint of the response in assay [3], the EC50, lay at 1000 nM.
On to `Nc1nc(NCc2ccc(C(=O)Nc3ccccc3N)cc2)nc(NC2CCCC2)n1`, for which the IC50 on Histone deacetylase 1 [1] stood at 200 nM; with HCT-116 [2], 700 nM; in the assay on HMEC it was 11000 nM. The compound also had an EC50 in assay [3] of 800 nM. In addition, the result (at Histone deacetylase 1 [4]; in assay [5]; in [6]) was Active. Moreover, the outcome in [7], in [8], in assay [9] and in assay [10] was inactive. Further, the inhibition in vivo at 40 mg/kg/day in the assay with HCT-116 [11] was found to be 50%.
As to `Nc1nc(NCc2ccc(C(=O)Nc3ccccc3N)cc2)nc(NC2Cc3ccccc3C2)n1`, the IC50 at Histone deacetylase 1 [1] was determined as 200 nM; in the assay with HCT-116 [2], 600 nM; with HMEC, 8000 nM. The EC50 in assay [3] was 1000 nM. For the same compound, the outcome (on Histone deacetylase 1 [4]; in assay [5]; in [6]) was Active. Moreover, the result in [7], in assay [8], in assay [9] and in [10] was inactive.
Consider `Cc1cc(C)nc(NCc2ccc(C(=O)Nc3ccccc3N)cc2)n1`, for which the half-inhibitory concentration (IC50) came out at 300 nM at Histone deacetylase 1 [1] and 1000 nM with HCT-116 [2].
Consider `CCCCn1cnc2c(NCc3ccc(C(=O)Nc4ccccc4N)cc3)nc(Cl)nc21`, for which the IC50 on Histone deacetylase 1 [1] is 50 nM; in the assay with HCT-116 [2], 100 nM.
On to `Nc1ccccc1NC(=O)c1ccc(CNc2nc(NC3CC3)nc(NC3Cc4ccccc4C3)n2)cc1`, for which the IC50 is 30 nM on Histone deacetylase 1 [1], 1000 nM in the assay on HCT-116 [2] and 18000 nM in the assay with HMEC. Moreover, it took 1000 nM to reach a half-maximal effect in assay [3] (EC50).
On to `Nc1ccccc1NC(=O)c1ccc(CNc2cccc(F)n2)cc1`, for which the results for the IC50 on Histone deacetylase 1 [1] and with HCT-116 [2] were 100 nM and 1000 nM, respectively.
